From paper PMC12028158, “Synthesis and In Vitro Evaluation of the Anticancer Effect of Novel Phosphonium Vindoline Derivatives” (International Journal of Molecular Sciences, 2025)
Read-outs that look alike come from different tables or passages of the source.

Legend:
Format in all cases: cell-based
OVCAR-8 = experiment: NCI60 five-dose screen; details: Homo sapiens, OVCAR-8
NCI-H322M = experiment: NCI60 five-dose screen; details: Homo sapiens
SN12C = experiment: NCI60 five-dose screen; details: Homo sapiens
HOP-62 = experiment: NCI60 one-dose screen; details: Homo sapiens, HOP-62, read-out: Growth percent
HCT-116 = experiment: NCI60 one-dose screen; details: Homo sapiens, HCT-116, read-out: Growth percent
Prostate Cancer panel = experiment: NCI60 five-dose screen, panel mean; details: Homo sapiens
NCI-H226 = experiment: NCI60 five-dose screen; details: Homo sapiens, NCI-H226
MDA-MB-468 = experiment: NCI60 one-dose screen; details: Homo sapiens, MDA-MB-468, read-out: Growth percent
[1] = system: 60 human tumor cell lines (NCI60); experiment: NCI60 five-dose screen, overall mean
MDA-MB-435 = experiment: NCI60 one-dose screen; details: Homo sapiens, MDA-MB-435, read-out: Growth percent
HL-60(TB) = experiment: NCI60 one-dose screen; details: Homo sapiens, HL-60, read-out: Growth percent
HCC-2998 = experiment: NCI60 one-dose screen; details: Homo sapiens, HCC 2998, read-out: Growth percent
COLO 205 = experiment: NCI60 one-dose screen; details: Homo sapiens, COLO 205, read-out: Growth percent
CCRF-CEM = experiment: NCI60 five-dose screen; details: Homo sapiens
SR = experiment: NCI60 five-dose screen; details: Homo sapiens
ACHN = experiment: NCI60 five-dose screen; details: Homo sapiens
SF-295 = experiment: NCI60 one-dose screen; details: Homo sapiens, SF-295, read-out: Growth percent
T-47D = experiment: NCI60 five-dose screen; details: Homo sapiens, T47D
SNB-19 = experiment: NCI60 five-dose screen; details: Homo sapiens, SNB-19
MDA-MB-231/ATCC = experiment: NCI60 one-dose screen; details: Homo sapiens, MDA-MB-231, read-out: Growth percent
SF-268 = experiment: NCI60 five-dose screen; details: Homo sapiens, SF-268
DU-145 = experiment: NCI60 five-dose screen; details: Homo sapiens, DU-145
HS 578T = experiment: NCI60 five-dose screen; details: Homo sapiens, Hs-578T
SW-620 [2] = experiment: NCI60 one-dose screen; details: Homo sapiens, SW-620, read-out: Growth percent
SW-620 [3] = experiment: NCI60 five-dose screen; details: Homo sapiens, SW-620
BT-549 = experiment: NCI60 one-dose screen; details: Homo sapiens, BT-549, read-out: Growth percent
M14 = experiment: NCI60 five-dose screen; details: Homo sapiens, M14
CNS Cancer panel = experiment: NCI60 five-dose screen, panel mean; details: Homo sapiens
NCI/ADR-RES = experiment: NCI60 one-dose screen; details: Homo sapiens, read-out: Growth percent
RXF 393 = experiment: NCI60 one-dose screen; details: Homo sapiens, RXF 393, read-out: Growth percent
NCI-H23 = experiment: NCI60 five-dose screen; details: Homo sapiens, NCI-H23
OVCAR-5 = experiment: NCI60 five-dose screen; details: Homo sapiens, OVCAR-5
[4] = system: 60 human tumor cell lines (NCI60); experiment: NCI60 one-dose screen, overall mean; details: for activity at 10 µM: Homo sapiens, 60 cell, read-out: Mean growth percent
[5] = 60 cell, read-out: Mean GI50, mean over all 60 cell lines

Row | Compound | GI50 (OVCAR-8) | GI50 (NCI-H322M) | GI50 (SN12C) | activity at 10 µM (HOP-62) | activity at 10 µM (HCT-116) | GI50 (NCI-H226) | activity at 10 µM (MDA-MB-468) | GI50 [1, 5] | activity at 10 µM (MDA-MB-435) | activity at 10 µM (HL-60(TB)) | activity at 10 µM (HCC-2998) | activity at 10 µM (COLO 205) | GI50 (SR) | activity at 10 µM (SF-295) | activity at 10 µM (MDA-MB-231/ATCC) | activity at 10 µM (SW-620 [2]) | activity at 10 µM (BT-549) | activity at 10 µM (NCI/ADR-RES) | activity at 10 µM (RXF 393) | activity at 10 µM [4] | also measured
1 | CC[C@]12C=CCN3CC[C@@]4(c5ccc(OC)cc5N(C)[C@H]4[C@@](O)(C(=O)OC)[C@@H]1OC(=O)CCC[P+](c1ccc(F)cc1)(c1ccc(F)cc1)c1ccc(F)cc1)[C@@H]32 [9c] | 18.4 µM | > 48.5 µM | 14.8 µM | 64% | 32.2% | 24.2 µM | -74.6% | 17 µM | 6.69% | -22.9% | 22.4% | -18.9% | 7.45 µM | 85% | 22% | 45.3% | -9.4% | 104% | -10.4% | 26.3% | GI50 (Prostate Cancer panel; read-out: Mean GI50): 18.2 µM; GI50 (CCRF-CEM): 12.7 µM; GI50 (ACHN): > 48.5 µM; GI50 (T-47D): 10.5 µM; GI50 (SNB-19): 11.4 µM; GI50 (SF-268): 15 µM; GI50 (DU-145): 23.7 µM; GI50 (HS 578T): 11.8 µM; GI50 (SW-620 [3]): 18.3 µM; GI50 (M14): 9.1 µM; GI50 (CNS Cancer panel; read-out: Mean GI50): 20.2 µM; GI50 (NCI-H23): 15.8 µM; GI50 (OVCAR-5): 20.8 µM
2 | CC[C@]12C=CCN3CC[C@@]4(c5ccc(OC)cc5N(C)[C@H]4[C@@](O)(C(=O)OC)[C@@H]1OC(=O)CCCC[P+](c1ccc(OC)cc1)(c1ccc(OC)cc1)c1ccc(OC)cc1)[C@@H]32 [10b] | 1.99 µM | 2.79 µM | 1.18 µM | -80.8% | -94.9% | 2.03 µM | -92.7% | < 3 µM | -88.5% | -45.2% | -88.4% | -64.9% | 0.428 µM | -93.6% | -97.4% | -88.7% | -96.7% | 84.3% | -90.4% | -70.4% | GI50 (Prostate Cancer panel; read-out: GI50 Mean): 8.28 µM; GI50 ([1]; read-out: GI50 Mean, mean over all 60 human cancer cell lines): 2.2 µM; GI50 (ACHN): 6.28 µM; GI50 (T-47D): 0.383 µM; GI50 (SNB-19): 0.484 µM; GI50 (SF-268): 1.47 µM; GI50 (DU-145): 16 µM; GI50 (HS 578T): 1.51 µM; GI50 (SW-620 [3]): 1.06 µM; GI50 (M14): 1.2 µM; GI50 (CNS Cancer panel; read-out: GI50 Mean): 1.17 µM; GI50 (NCI-H23): 1.19 µM; GI50 (OVCAR-5): 2.13 µM; average reduction / average cell death ([4]; one-dose, 10 µM, average over cell lines): more than 70%
3 | CCC12C=CCN3CC[C@@]4(c5ccc(OC)cc5N(C)[C@H]4[C@@](O)(C(=O)OC)[C@@H]1OC(C)=O)[C@@H]32 (some centres unmarked) [compound 2, vindoline] |  |  |  | 92.2% | 104% |  | 102% |  | 105% | 104% | 118% |  |  | 99.5% | 97.7% | 104% | 114% | 110% | 104% | 100% | 
